# Results published in publication PMC9572942, “The Discovery of Small Allosteric and Active Site Inhibitors of the SARS-CoV-2 Main Protease via Structure-Based Virtual Screening and Biological Evaluation” (Molecules, 2022).
# Values joined by “and” are separate entries in the source; they are usually repeats but may differ in a detail not shown here. Equal values may be shown once. “Also recorded” adds a separate entry of the source.
# Assays:
# Format in all cases: biochemical
# [1] = biological target: T1, SARS-CoV-2 M^pro enzyme (Severe acute respiratory syndrome coronavirus 2, UniProt P0DTD1); test: FRET-based enzyme assay and IC50 determination; details: for inhibition at 100 µM: 100 μM compound, in Figure 5; for inhibition at 200 µM: 200 μM compound; for IC50: 4.6 μM enzyme, HEPES pH 6.5, read-out: IC50
# [2] = biological target: T1, SARS-CoV-2 M^pro enzyme; test: Promiscuity tests (pre-incubation, 10-fold enzyme concentration, BSA buffer); details: 100 μM compound
# [3] = biological target: T1, SARS-CoV-2 M^pro enzyme; test: Inhibition kinetic study (Lineweaver–Burk, FRET assay); details: for inhibition mechanism: Lineweaver–Burk plot; for Ki: from slope of Lineweaver–Burk curves vs. inhibitor concentration, read-out: Ki
# [4] = 4.6 μM enzyme, read-out: Inhibition % at 100 μM at 4.6 μM enzyme concentration
# [5] = 46 μM enzyme (10-fold), read-out: Inhibition % at 100 μM at 46 μM enzyme concentration
# [6] = 15 min pre-incubation with enzyme, read-out: Inhibition % at 100 μM with 15 min pre-incubation
# [7] = no BSA, read-out: Inhibition % at 100 μM without BSA in assay buffer
# [8] = pre-incubation test, read-out: Inhibition % at 100 μM without pre-incubation
# [9] = read-out: Inhibition % at 100 μM with BSA in assay buffer, BSA in 20 mM HEPES pH 6.5, read-out: Inhibition % at 100 μM with 1g/mL BSA in assay buffer
SMILES,inhibition at 100 µM [1] [%],inhibition at 200 µM [1] [%],"inhibition at 100 µM [2, 4] [%]","inhibition at 100 µM [2, 5] [%]","inhibition at 100 µM [2, 6] [%]","inhibition at 100 µM [2, 7] [%]","inhibition at 100 µM [2, 8] [%]","inhibition at 100 µM [2, 9] [%]",inhibition mechanism [3],IC50 [1],Ki [3] [µM]
"O=C(NC1CCNCC1)c1[nH]ncc1NC(=O)c1c(Cl)cccc1Cl [AT7519, reference compound]",8,18,,,,,,,,,
O=C(CSc1cnc2ccccc2n1)NC1CCCC1 [CB03],,,15,13.1,14.2,15.5,15.1,17.3,competitive mechanism,,
COC(=O)C1C(O)=C2C(=CC1C)Nc1ccccc1NC2c1ccc2ccccc2c1 (stereo not shown) [CD06],,,,,,,,,,226 ± 17.5 µM,
CN(CCCO)c1cc2c3c(cccc3n1)C(=O)c1ccccc1-2 [GR04],35,61,33.5,33.9,34.3,33,35.4,35,noncompetitive model; also recorded: noncompetitive inhibition mechanism,346 ± 10 µM,298
CCCc1nc2c(o1)OC(N)=C(C#N)[C@H]2c1cccc(O)c1 [GR20],,,48.6,48,,50,,51.4,mix inhibition model; also recorded: mixed inhibition mode,92 µM and 91.8 µM,89
